Reference: publication PMC11407758, “Integrated stress response (ISR) activation and apoptosis through HRI kinase by PG3 and other p53 pathway-restoring cancer therapeutics” (Oncotarget, 2024)
Like-named read-outs stand apart in the source and are kept apart here.

Key:
[1] = tested on: HT29 (R273H); experiment: Cell viability assay (CellTiterGlo), HT29; format: cell-based, human; details: Homo sapiens, HT-29; 72 h, CellTiterGlo
Experimental: (§1) Figure 1 PG3 inhibits cell proliferation and growth in a p53-indepent manner. (A–E) Cell viability assay, dose response curves and IC50 value measurements in a panel of cancer cell lines and normal cells. Cells were treated with different concentrations of PG3, PG3-Oc (Oc), obatoclax (Ob), prodigiosin (P) or DMSO for 72 h. Luciferase activity was imaged by the IVIS Imaging System after treatment. Cell viability data were normalized to those of DMSO treatment control in each cell line and data analyses were performed using PRISM4 software. IC50 data are expressed as the mean ±SD (normal; n = 3).
as §1, with “2 p53-dependent inhibition of” for “1 PG3 inhibits”, “is only observed at specific concentrations. (A–J)” for “and growth in a p53-indepent manner. (A–E)”, “ZMC1, CP-313908, APR-246, Ellipticine, Nutalin-3a” for “PG3, PG3-Oc (Oc), obatoclax (Ob), prodigiosin (P)”
(§2) Cells were seeded in 96-well plates (6 × 10^3 cells/well). Cells were treated with different concentrations of compounds or dimethyl sulfoxide (DMSO) as a control for 72 hours. The cell viability was assessed by CellTiterGlo bioluminescent cell viability assay (Promega), following the manufacturer’s protocol. Bioluminescence imaging was measured using the IVIS imager. The percentage of cell viability (mean ± SEM) at each dose was calculated against the respective DMSO control. The IC50 values were determined from the sigmoidal dose-response curves using GraphPad Prism.

[2] = tested on: DR5; experiment: Western blot, DR5 induction; format: cell-based, human; details: five cell lines, 24 h
Experimental: (§3) Figure 4 Activation of ATF4 and up-regulation of typical p53 target genes. (A–E) Western blot analysis of p53 protein levels and upregulation of ATF4, PUMA, DR5 and p21. Cells were treated for 24 h with indicated compounds, concentrations and cell lines. Abbreviations: S.E.: Short exposure; L.E.: Long exposure.
(§4) After treatment, protein lysates were collected for Western blot analysis. A total of 15 μg of protein was used for SDS-PAGE. After primary and secondary antibody incubations, the signal was detected by a chemiluminescence detection kit, imaged by Syngene (Imgen Technologies). Antibodies for NAG-1 (GDF15) and P53 were from Santa Cruz Biotechnology; for caspase 8, cleaved caspase 8, caspase 9, caspase 3, cleavage PARP, eIF2α, p-eIF2α (Ser51), CHOP, ATF4, DR5, and PUMA were from Cell Signaling Technology. Noxa and p21 were from Calbiochem. Ran was from BD Biosciences.

[3] = tested on: TOV-112D (R175H); experiment: Cell viability assay (CellTiterGlo), TOV-112D; format: cell-based, human; details: for IC50: Homo sapiens, TOV112D, 72 h
Experimental: as §1
as §1, with “2 p53-dependent inhibition of” for “1 PG3 inhibits”, “is only observed at specific concentrations. (A–J)” for “and growth in a p53-indepent manner. (A–E)”, “ZMC1, CP-313908, APR-246, Ellipticine, Nutalin-3a” for “PG3, PG3-Oc (Oc), obatoclax (Ob), prodigiosin (P)”
as §2

[4] = tested on: ATF4; experiment: Western blot, ATF4 induction; format: cell-based, human; details: five cancer cell lines, 24 h
Experimental: as §3, §4

[5] = tested on: GCN2, PKR, eIF2α, ATF4, CHOP in HT29 cells; experiment: Western blot, ISR kinases / eIF2α / ATF4 / CHOP; format: cell-based, human; details: HT29, 15 h
Experimental: Figure 7 PG3 induces upregulation of ATF4 through ISR via HRI. (A) HT29 cells were treated with PG3, GSK2606414, TG and ONC201 respectively, or co-treatment with PG3/GSK2606414, PG3/TG, and PG3/ONC201 for 15 h. (B) MEF, MEF^PERK−/− and MEF^GCN2−/− cells were treated with PG3 and ONC201 for 16 hours. (C) HT29 cells were transfected with siControl, siPKR, siHRI and siPKR/siHRI for 24 hours and then treated with PG3 for 16 hours. (D) HCT116 p53^−/− cells were transfected with siControl and siHRI for 24 hours and then treated with PG3 for 16 hours. (E) HCT116 p53^−/− cells were treated with PG3 and ONC201 for indicated times. (F) PANC1-sgCtrl, -sgHRI and -sgPKR cell lines were treated with PG3 and imipridones (ONC201, ONC206 and ONC212) for 16 hours. Western blot was performed using indicated antibodies. (G) Proposed model of PG3-induced cell apoptosis through HRI/ATF4/PUMA axis. Abbreviation: L.E.: Long exposure.
as §4
Supplementary Figure 2: ROS and NO are not responsible for PG3-induced HRI activation. (A, B) cells were pre-treated
with ZnPP, L-NMMA, SA and NAC for 2 hours respectively, and then ONC201 or PG3 was added to the medium for 24 hour treatment.
Western blot was performed using indicated antibodies.
(1 picture or pasted object on this page, not shown here)

[6] = tested on: HCT116 (R175H); experiment: Cell viability assay (CellTiterGlo), HCT116 R175H; format: cell-based, human; details: Homo sapiens, HCT-116; 72 h, CellTiterGlo
Experimental: as §1
as §1, with “2 p53-dependent inhibition of” for “1 PG3 inhibits”, “is only observed at specific concentrations. (A–J)” for “and growth in a p53-indepent manner. (A–E)”, “ZMC1, CP-313908, APR-246, Ellipticine, Nutalin-3a” for “PG3, PG3-Oc (Oc), obatoclax (Ob), prodigiosin (P)”
as §2

[7] = tested on: p53 protein; experiment: Western blot, p53 protein levels; format: cell-based, human
Experimental: Cells were treated for 24 h with indicated compounds, concentrations and cell lines. Abbreviations: S.E.: Short exposure; L.E.: Long exposure.
as §4

[8] = tested on: p21; experiment: Western blot, p21 induction; format: cell-based, human; details: five cell lines, 24 h
Experimental: as §3, §4

[9] = tested on: PUMA; experiment: Western blot, PUMA induction; format: cell-based, human; details: five cell lines, 24 h
Experimental: as §3, §4

[10] = tested on: MRC5 (human lung fibroblast cell with wild-type p53); experiment: Cell viability assay (CellTiterGlo), MRC5 normal cells; format: cell-based; details: Homo sapiens, MRC5, 72 h, read-out: IC50 values, MRC5 (WT)
Experimental: as §1
as §1, with “2 p53-dependent inhibition of” for “1 PG3 inhibits”, “is only observed at specific concentrations. (A–J)” for “and growth in a p53-indepent manner. (A–E)”, “ZMC1, CP-313908, APR-246, Ellipticine, Nutalin-3a” for “PG3, PG3-Oc (Oc), obatoclax (Ob), prodigiosin (P)”
as §2

[11] = tested on: HCT116 (WT); experiment: Cell viability assay (CellTiterGlo), HCT116 WT; format: cell-based, human; details: Homo sapiens, HCT-116; 72 h, CellTiterGlo
Experimental: as §1
as §1, with “2 p53-dependent inhibition of” for “1 PG3 inhibits”, “is only observed at specific concentrations. (A–J)” for “and growth in a p53-indepent manner. (A–E)”, “ZMC1, CP-313908, APR-246, Ellipticine, Nutalin-3a” for “PG3, PG3-Oc (Oc), obatoclax (Ob), prodigiosin (P)”
as §2

[12] = tested on: cleaved caspase-8, -3, cleaved PARP and PUMA in HT29, SW480 and HCT116 p53−/− cells; experiment: Western blot, apoptosis markers in PG3-treated cells; format: cell-based, human
Experimental: Figure 5 PG3 induces apoptosis in p53-null and p53-mutant cancer cell lines. (A–E) Dose-response and time-course analysis of cleavage of caspase-8, -3, cleaved PARP and PUMA in PG3-treated HT29, SW480 and HCT116 p53^−/− cells by western blot using the indicated antibodies. (F–H) Flowcytometry analysis of cell death. (I) HT29 and HT29-PUMA^−/− and (J) SW480 cells were co-treated with PG3 and pan-caspase inhibitor Z-VAD-fmk for 48 h. (K) HCT116 p53^−/− cell were co-treated with PG3 and Z-VAD-fmk for 24 hours.
as §4

IC50 [1]: 36 nM
IC50 [6]: 66 nM
IC50 [11]: 71 nM
Compound: CCc1c(C)[nH]c(/C=C2\N=C(c3ccc[nH]3)C=C2OC)c1C [PG3]
upregulation of DR5 [2]: consistently induce upregulation
IC50 ([3]; CellTiterGlo, read-out: IC50 values, TOV-1120 (R175H) (converted)): 126 nM
IC50 ([3]; unit inferred, 'within the nanomolar range', read-out: IC50 value, TOV-112D): 120 nM
fold less potent than PG3-Oc ([3]; TOV-112D): 3.3 fold
upregulation of ATF4 [4]: induce upregulation of ATF4
phosphorylation of GCN2 and PKR [5]: does not increase phosphorylation
wild-type p53 protein level ([7]; HCT116, 24 h): do not upregulate expression
endogenous mutant p53 R273H protein level ([7]; HT29, 24 h): no effects on stability
endogenous mutant p53 R175H protein level ([7]; TOV-112D, 24 h): no effects on stability
exogenous mutant p53 R175H protein level ([7]; engineered HCT116-R175H cells, 24 h): stabilize
upregulation of p21 [8]: consistently induce upregulation
upregulation of PUMA [9]: consistently induce upregulation
IC50 [10]: 2230 nM
time at which cleavage of PARP, caspase-8 and -3 occurs ([12]; HT29, HCT116 p53–/– and SW480): 48 h
concentration sufficient to induce PUMA and activate cleaved caspase-8 and -3 and cleaved-PARP ([12]; HT29 and SW480 cells, dose-response): 0.5 µM
caspase-9 activation ([12]; HT29 cells): does not activate caspase-9
time at which PUMA protein is first induced ([12]; time-course): 24 h
